Results reported in patent US6933296B2, “Compounds effective as β2-adrenoreceptor agonists as well as PDE4-inhibitors” (Altana Pharma B.V., priority 2000, dated 2005).

Assays:
human eosinophils = assay: Inhibition of C5a-stimulated chemiluminescence in human eosinophils; type: cell-based; conditions: for IC30: Eosinophil, read-out: Inhibition of C5a-stimulated chemiluminescence [-logIC30 (mol/l)] (converted)
Description: c) Inhibition of C5a-stimulated Chemiluminescence in Human Eosinophils
Eosinophils were purified essentially as described in detail elsewhere (Hatzelmann A, Tenor H and Schudt C, Differential effects of non-selective and selective phosphodiesterase inhibitors on human eosinophil functions. Brit J Pharmacol 114: 821-831, 1995). Briefly, total granulocytes were first purified from blood (anticoagulated with 0.3% w/v sodium citrate) by dextran sedimentation, centrifugation on Ficoll Paque and hypotonic lysis of remaining red blood cells. For the further purification of the eosinophil fraction the magnetic cell separation (MACS) system from Miltenyi Biotec (Bergisch-Gladbach, Germany) was applied. Eosinophils were separated from neutrophils by negative selection using anti-CD16 microbeads in a two-step protocol using D- and BS-(formerly called B2-) separation columns. By this method human eosinophils with a purity of >99% and a viability of >97% were obtained.
The chemiluminescence (CL) assay was essentially performed as described (Hatzelmann et al., 1995). Briefly, measurements were performed in a “CL-buffer” (140 mM NaCl, 5 mM KCl, 1 mM MgCl2, 10 mM HEPES, pH 7.4) containing 1 mM CaCl2, 1 mg/ml glucose, 0.05% (w/v) BSA, 10 μM luminol and 4 μM microperoxidase (all values correspond to final concentrations in the assays) in a total volume of 0.5 ml at a cell concentration of 10^6 cells/ml. Aliquots (0.4 ml) of the cell suspension (containing luminol and microperoxidase) were preincubated for 5 min at 37° C. in the absence or presence of inhibitors (0.05 ml). Stock solutions of the inhibitors (10 mM) were prepared in DMSO and diluted 1:100 (v/v) in CL-buffer; subsequent dilutions were made in 1% DMSO/CL-buffer to achieve the final drug concentrations in the assays at a DMSO concentration of 0.1% (v/v) which by itself only weakly affected the CL response. […] After preincubation, the assays were transferred into a “Multi-biolumat LB 9505C” from Berthold (Wildbad, Germany) and stimulated by the addition of 0.05 ml C5a (dissolved in CL-buffer; 100 nM final concentration). CL was continuously recorded for 1 min (C5a) and the AUC (area under the curve) calculated. Inhibition of CL by the compounds under these conditions is given as −log IC30 (mol/l).

PDE4 = assay: Inhibition of PDE4 activity (cytosol from human neutrophils, [3H]cAMP hydrolysis); type: biochemical; conditions: 0.5 μM cAMP, Motapizone 1 μM, DMSO 0.5% for (some of) examples 1-19, 1% from example 20
Method: Method for Measuring Inhibition of PDE4 Activity
PDE4 activity was determined as described by Thompson et al. (Adv Cycl Nucl Res 10: 69-92, 1979) with some modifications (Bauer and Schwabe, Naunyn-Schmiedeberg's Arch Pharmacol 311: 193-198, 1980). At a final assay volume of 200 μl (96well microtiter plates) the assay mixture contained 20 mM Tris-HCl (pH 7.4), 5 mM MgCl2, 0.5 μM cAMP, [^3H]cAMP (about 30,000 cpm/assay), the test compound and an aliquot of cytosol from human neutrophils which mainly contains PDE4 activity as described by Schudt et al. (Naunyn-Schmiedeberg's Arch Pharmacol 344: 682-690, 1991); the PDE3-specific inhibitor Motapizone (1 μM) was included to suppress PDE3 activity originating from contaminating platelets.
To minimize problems with the solubility of the compounds, starting from example 20 serial dilutions of the compounds were prepared directly in DMSO and further diluted 1:100 (v/v) in the assays to obtain now the final concentrations of the inhibitors at a DMSO concentration of 1% (v/v) which by itself only slightly affected PDE4 activity.
After preincubation for 5 min at 37° C., the reaction was started by the addition of substrate (cAMP) and the assays were incubated for further 15 min at 37° C. 50 μl of 0.2 N HCl was added to stop the reaction and the assays were left on ice for about 10 min. Following incubation with 25 μg 5′-nucleotidase (Crotalus atrox snake venom) for 10 min at 37° C., the assays were loaded on QAE Sephadex A-25 (1 ml bed volume). The columns were eluted with 2 ml of 30 mM ammonium formiate (pH 6.0) and the eluate was counted for radioactivity. Results were corrected for blank values (measured in the presence of denatured protein) which were below 5% of total radioactivity. […] The IC50-values for the compounds according to the invention for the inhibition of the PDE4 activity were determined from the concentration-inhibition curves by nonlinear-regression.

[1] = 100 nM C5a, 100 nM salbutamol included as additional cAMP trigger

## COc1ccc(C2=NN(c3ccc(OCCNCC(O)c4cc(Cl)c(N)c(Cl)c4)cc3)C(=O)[C@@H]3CC=CC[C@H]23)cc1OC.O=C(O)C(=O)O (stereo partly drawn)
other
  melting point: 136 to 138 °C

## COc1ccc(C2=NN(C3CCN(CCS(=O)(=O)CCNCC(O)c4cc(Cl)c(N)c(Cl)c4)CC3)C(=O)[C@@H]3CC=CC[C@H]23)cc1OC.O=C(O)/C=C/C(=O)O (stereo partly drawn)
other
  melting point: 137 to 138 °C

## CCOc1ccc(C2=NN(C3CCN(C(=O)CNCC(O)c4cc(Cl)c(N)c(Cl)c4)CC3)C(=O)[C@@H]3CC=CC[C@H]23)cc1OCC.O=C(O)/C=C/C(=O)O (stereo partly drawn)
other
  melting point: 172 to 173 °C

## COc1ccc(C2=NN(C3CCN(C(=O)[C@H](C)NCC(O)c4cc(N)c(N)c(Cl)c4)CC3)C(=O)[C@@H]3CC=CC[C@H]23)cc1OC.O=C(O)/C=C/C(=O)O (stereo partly drawn)
other
  melting point: 130 to 131 °C

## COc1ccc(C2=NN(c3ccc(OCCCCNCC(O)c4ccc(O)c(CO)c4)cc3)C(=O)[C@@H]3CC=CC[C@H]23)cc1OC.O=C(O)/C=C/C(=O)O (stereo partly drawn)
other
  melting point: 126 to 127 °C

## COc1ccc(C2=NN(C3CCN(CCCCCCNCC(O)c4cc(Cl)c(N)c(C#N)c4)CC3)C(=O)[C@@H]3CC=CC[C@H]23)cc1OC.O=C(O)/C=C/C(=O)O (stereo partly drawn)
other
  melting point: 142 to 143 °C

## COc1ccc(C2=NN(CCNCC(O)c3cc(Cl)c(N)c(Cl)c3)C(=O)C3CC=CCC23)c2c1OC1(CCCC1)C2 (stereo not drawn) [Compound 8, (cis)-2-(2-[{2-(4-amino-3,5-dichlorophenyl)-2-hydroxyethyl}amino]-1-ethyl)-4-(2,3-dihydro-7-methoxybenzofuran-2-spiro-1′-cyclopentan-4-yl)-4a,5,8,8a-tetrahydro-2H-phthalazin-1-one]
Human eosinophils; [1]
  IC30: 0.398 µM
other
  melting point: 176 to 177 °C
PDE4
  Inhibition of PDE4 activity [-logIC50]: 8.18

## COc1ccc(C2=NN(c3ccc(OCCCCNCC(O)c4cc(Cl)c(N)c(Cl)c4)cc3)C(=O)[C@@H]3CC=CC[C@H]23)cc1OC.O=C(O)/C=C/C(=O)O (stereo partly drawn) [Compound 21, (4aS,8aR)-2-(4-{4-[2-(4-Amino-3,5-dichlorophenyl)-2-hydroxy-ethylamino]-butoxyl}-phenyl)-4-(3,4-dimethoxy-phenyl)-4a,5,8,8a-tetrahydro-2H-phthalazin-1-one fumarate]
Human eosinophils; [1]
  IC30: 0.302 µM
other
  melting point: 126 to 127 °C
PDE4
  Inhibition of PDE4 activity [-logIC50]: 10

## COc1ccc(C2=NN(Cc3ccc(OCCCCNCC(O)c4cc(Cl)c(N)c(Cl)c4)cc3)C(=O)[C@@H]3CC=CC[C@H]23)cc1OC.O=C(O)/C=C/C(=O)O (stereo partly drawn) [Compound 22, (4aS,8aR)-2-(4-{4-[2-(4-Amino-3,5-dichloro-phenyl)-2-hydroxy-ethylamino]-butoxy}-benzyl)-4-(3,4-dimethoxy-phenyl)-4a,5,8,8a-tetrahydro-2H-phthalazin-1-one fumarate]
Human eosinophils; [1]
  IC30: 0.2 µM
other
  melting point: 119 to 120 °C
PDE4
  Inhibition of PDE4 activity [-logIC50]: 9.79

## COc1ccc(C2=NN(C3CCN(C(=S)NCCCCNCC(O)c4cc(Cl)c(N)c(Cl)c4)CC3)C(=O)[C@@H]3CC=CC[C@H]23)cc1OC (stereo partly drawn) [Compound 25, 4-[(4aS,8aR)-4-(3,4-Dimethoxy-phenyl)-1-oxo-4a,5,8,8a-tetrahydro-1H-phthalazin-2-yl]-piperidine-1-carbothioic acid {4-[2-(4-amino-3,5-dichloro-phenyl)-2-hydroxy-ethylamino]-butyl}-amide]
Human eosinophils; [1]
  IC30: 0.794 µM
other
  melting point: 139 to 144 °C
PDE4
  Inhibition of PDE4 activity [-logIC50]: 10.6

## COc1ccc(C2=NN(C3CCN(S(=O)(=O)CCNCC(O)c4cc(Cl)c(N)c(Cl)c4)CC3)C(=O)[C@@H]3CC=CC[C@H]23)cc1OC.O=C(O)/C=C/C(=O)O (stereo partly drawn) [Compound 27, (4aS,8aR)-2-(1-{2-[2-(4-Amino-3,5-dichloro-phenyl)-2-hydroxy-ethylamino]-ethanesulfonyl}-piperidin-4yl)-4-(3,4-dimethoxy-phenyl)-4a,5,8,8a-tetrahydro-2H-phthalazin-1-one fumarate]
Human eosinophils; [1]
  IC30: 0.398 µM
other
  melting point: 169 to 171 °C
PDE4
  Inhibition of PDE4 activity [-logIC50]: 11.2

## COc1ccc(C2=NN(C3CCN(S(=O)(=O)CCNCC(O)c4ccc(O)c(CO)c4)CC3)C(=O)[C@@H]3CC=CC[C@H]23)cc1OC (stereo partly drawn) [Compound 29, (4aS,8aR)-4-(3,4-Dimethoxy-phenyl)-2-(1-{2-[2-hydroxy-2-(4-hydroxy-3-hydroxymethyl-phenyl)-ethylamino]-ethanesulfonyl}-piperidin-4-yl)-4a,5,8,8a-tetrahydro-2H-phthalazin-1-one]
other
  melting point: 97 to 99 °C

## COc1ccc(C2=NN(C3CCN(C(=O)CCSCCNCC(O)c4cc(Cl)c(N)c(Cl)c4)CC3)C(=O)[C@@H]3CC=CC[C@H]23)cc1OC.Cl (stereo partly drawn) [Compound 30, (4aS,8aR)-2-[1-(3-{2-[2-(4-Amino-3,5-dichloro-phenyl)-2-hydroxy-ethylamino]-ethylsulfanyl}-propanoyl)-piperidin-4-yl]-4-(3,4-dimethoxy-phenyl)-4a,5,8,8a-tetrahydro-2H-phthalazin-1-one hydrochloride]
Human eosinophils; [1]
  IC30: 0.2 µM
other
  melting point: 118 to 120 °C
PDE4
  Inhibition of PDE4 activity [-logIC50]: 10.7

## COc1ccc(C2=NN(C3CCN(C(=O)CCS(=O)(=O)CCNCC(O)c4cc(Cl)c(N)c(C#N)c4)CC3)C(=O)[C@@H]3CC=CC[C@H]23)cc1OC (stereo partly drawn) [Compound 32, 2-Amino-3-chloro-5-{2-[2-(3-{4-[(4aS,8aR)-4-(3,4-dimethoxy-phenyl)-1-oxo-4a,5,8,8a-tetrahydro-1H-phthalazin-2-yl]-piperidin-1-yl}-3-oxo-propane-1-sulfonyl)-ethylamino]-1-hydroxy-ethyl}-benzonitrile]
Human eosinophils; [1]
  IC30: 0.229 µM
other
  melting point: 102 to 103 °C
PDE4
  Inhibition of PDE4 activity [-logIC50]: 11.4

## COc1ccc(C2=NN(C3CCN(C(=O)[C@H](C)NCC(O)c4cc(Cl)c(N)c(C#N)c4)CC3)C(=O)[C@@H]3CC=CC[C@H]23)cc1OC.Cl (stereo partly drawn) [Compound 33, 2-Amino-3-chloro-5-[2-((S)-2-{4-[(4aS,8aR)-4-(3,4-dimethoxy-phenyl)-1-oxo-4a,5,8,8a-tetrahydro-1H-phthalazin-2-yl]-piperidin-1-yl}-1-methyl-2-oxo-ethylamino)-1-hydroxy-ethyl]-benzonitrile hydrochloride]
Human eosinophils; [1]
  IC30: 0.501 µM
other
  melting point: 160 to 161 °C
PDE4
  Inhibition of PDE4 activity [-logIC50]: 10.1

## CC(C)(C)NCC(O)c1ccc(O)c(CO)c1 (stereo not drawn) [salbutamol, reference compound]
Human eosinophils; 100 nM final concentration, C5a-stimulated
  effect on the CL response by itself: hardly affected the CL response

## (cis)-2-{4-(2-[{2-(4-amino-3,5-dichlorophenyl)-2-hydroxyethyl}amino]-1-ethyl}phenyl)-4-(3,4-dimethoxyphenyl)-4a,5,8,8a-tetrahydro-2H-phthalazin-1-one hemifumarate [Compound 5]
Human eosinophils; [1]
  Inhibition of C5a-stimulated chemiluminescence [-logIC30 (mol/l)]: 6.70 mol/l
